Measured values published in ChEMBL document CHEMBL1201862, “PubChem BioAssay data set” (2004).
The source made the active and inactive calls. Rule as the data show it, for most assays here: actives have a measured EC50 and inactives only a lower limit.

Columns and labels:
[1] = test system: Streptococcus sp. 'group A'; test: Streptococcus pyogenes SK(-)GAS viability under kanamycin – luminescence, BacTiterGlo, confirmation, counter-screen for streptokinase expression inhibitor project, dose response (AID 1900); type: functional, organism-based
Streptokinase A = target: T1, Streptokinase A (Streptococcus pyogenes serotype M1, UniProt P10520); test: viability-normalized secreted streptokinase activity reduction – plasminogen activation absorbance, OD405, dose response (AID 1914); type: functional, Streptococcus pyogenes M1 GAS;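 also: secreted streptokinase activity via plasminogen activation per viability signal from cell pellet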
T1 sequence (P10520 whole entry): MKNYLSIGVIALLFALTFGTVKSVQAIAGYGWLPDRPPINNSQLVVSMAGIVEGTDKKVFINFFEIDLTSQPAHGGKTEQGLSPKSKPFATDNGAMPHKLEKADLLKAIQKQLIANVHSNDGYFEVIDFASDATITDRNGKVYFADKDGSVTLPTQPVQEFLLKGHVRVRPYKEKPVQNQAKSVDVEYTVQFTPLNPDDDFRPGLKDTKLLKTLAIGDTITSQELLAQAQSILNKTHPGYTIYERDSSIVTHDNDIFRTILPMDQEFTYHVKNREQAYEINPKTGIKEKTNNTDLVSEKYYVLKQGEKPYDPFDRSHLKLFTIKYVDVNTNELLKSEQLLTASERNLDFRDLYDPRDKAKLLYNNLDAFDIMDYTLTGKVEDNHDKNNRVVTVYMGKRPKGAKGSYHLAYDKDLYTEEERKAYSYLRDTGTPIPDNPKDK

Streptococcus = test: GAS UMAA2166 growth inhibition – luminescence, BacTiterGlo, counter-screen for streptokinase expression inhibitor project, dose response (AID 1915); type: functional, organism-based;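 also: potency for reduction of bacterial viability or growth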
cells = type: functional
[2] = luciferase reporter signal suppression in cells – H4 neuroglioma cells, luminescence, dose response (AID 1990); type: functional, cell-based
[3] = Luminescence Cell-Based Dose Response HTS to Identify Inhibitors of 5'UTR Stem-Loop Driven Prion Protein mRNA Translation in H4 Neuroglioblastoma Cells. [Related pubchem assays: 1827 (Project Summary), 1813 (Primary HTS)]; type: functional
[4] = alpha-synuclein stem-loop luciferase translation blockers – H4 neuroglioma cells, luminescence, confirmation (AID 1988); type: functional, cell-based
[5] = viability of uninfected HEp-2 cells – cell-based, HTS, cytotoxicity control for RSV inhibitor project, dose response (AID 2410); type: functional; settings: human respiratory syncytial virus
BJ [6] = test: BJ-TERT fibroblast viability loss – cell-based, RAS-independent, luminescence, dose response (AID 1933); type: functional; settings: Homo sapiens
BJ [7] = test: cells; type: functional, cell-based; settings: Homo sapiens
BJ [8] = test: BJ-TERT-LT-ST fibroblast viability loss – cell-based, RAS-independent, luminescence, dose response (AID 1935); type: functional; settings: Homo sapiens;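 also: BJ fibroblasts immortalized with TERT plus LT and ST oncogenes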
[9] = DRD fibroblast viability loss – cell-based, non-viral oncogenic, luminescence, dose response (AID 1934); type: functional; settings: Homo sapiens
[10] = target: T2, Replicative DNA helicase DnaB (Mycobacterium tuberculosis, UniProt P9WMR3); test: DnaB intein splicing inhibitors, dose response, biochemical, cell-free fluorescence (AID 449749); type: functional
T2 sequence (P9WMR3 whole entry): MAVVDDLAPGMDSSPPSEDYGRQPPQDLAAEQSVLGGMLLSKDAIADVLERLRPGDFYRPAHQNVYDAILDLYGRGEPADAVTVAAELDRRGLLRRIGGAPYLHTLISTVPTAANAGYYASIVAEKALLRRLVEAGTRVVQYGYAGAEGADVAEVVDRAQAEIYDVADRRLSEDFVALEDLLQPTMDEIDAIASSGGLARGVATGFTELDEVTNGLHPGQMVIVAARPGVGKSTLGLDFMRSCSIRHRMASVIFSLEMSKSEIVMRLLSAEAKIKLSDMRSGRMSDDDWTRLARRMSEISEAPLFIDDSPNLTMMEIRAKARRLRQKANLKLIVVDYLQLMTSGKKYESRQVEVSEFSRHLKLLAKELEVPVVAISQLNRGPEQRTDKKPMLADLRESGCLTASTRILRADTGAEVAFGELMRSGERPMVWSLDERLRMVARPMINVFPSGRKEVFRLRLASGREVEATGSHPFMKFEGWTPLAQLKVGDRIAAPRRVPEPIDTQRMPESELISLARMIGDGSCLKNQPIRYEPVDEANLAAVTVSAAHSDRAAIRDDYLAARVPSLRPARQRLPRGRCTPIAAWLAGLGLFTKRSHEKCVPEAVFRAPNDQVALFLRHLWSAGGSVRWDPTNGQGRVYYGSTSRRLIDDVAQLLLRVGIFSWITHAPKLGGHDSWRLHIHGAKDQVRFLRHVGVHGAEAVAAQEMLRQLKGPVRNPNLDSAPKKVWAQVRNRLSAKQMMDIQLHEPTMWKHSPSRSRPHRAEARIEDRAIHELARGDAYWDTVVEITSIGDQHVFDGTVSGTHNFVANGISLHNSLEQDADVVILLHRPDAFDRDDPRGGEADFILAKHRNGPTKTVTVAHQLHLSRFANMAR

Protein RecA = target: T3, Protein RecA (Mycobacterium tuberculosis, UniProt P9WHJ3); test: Fluorescence Cell-Free Homogeneous Dose Retest to Identify Inhibitors of RecA-Intein Splicing Activity. [Related pubchem assays (depositor defined):AID2097, AID2223, AID489010, AID492950]; type: functional
T3 sequence (P9WHJ3 whole entry): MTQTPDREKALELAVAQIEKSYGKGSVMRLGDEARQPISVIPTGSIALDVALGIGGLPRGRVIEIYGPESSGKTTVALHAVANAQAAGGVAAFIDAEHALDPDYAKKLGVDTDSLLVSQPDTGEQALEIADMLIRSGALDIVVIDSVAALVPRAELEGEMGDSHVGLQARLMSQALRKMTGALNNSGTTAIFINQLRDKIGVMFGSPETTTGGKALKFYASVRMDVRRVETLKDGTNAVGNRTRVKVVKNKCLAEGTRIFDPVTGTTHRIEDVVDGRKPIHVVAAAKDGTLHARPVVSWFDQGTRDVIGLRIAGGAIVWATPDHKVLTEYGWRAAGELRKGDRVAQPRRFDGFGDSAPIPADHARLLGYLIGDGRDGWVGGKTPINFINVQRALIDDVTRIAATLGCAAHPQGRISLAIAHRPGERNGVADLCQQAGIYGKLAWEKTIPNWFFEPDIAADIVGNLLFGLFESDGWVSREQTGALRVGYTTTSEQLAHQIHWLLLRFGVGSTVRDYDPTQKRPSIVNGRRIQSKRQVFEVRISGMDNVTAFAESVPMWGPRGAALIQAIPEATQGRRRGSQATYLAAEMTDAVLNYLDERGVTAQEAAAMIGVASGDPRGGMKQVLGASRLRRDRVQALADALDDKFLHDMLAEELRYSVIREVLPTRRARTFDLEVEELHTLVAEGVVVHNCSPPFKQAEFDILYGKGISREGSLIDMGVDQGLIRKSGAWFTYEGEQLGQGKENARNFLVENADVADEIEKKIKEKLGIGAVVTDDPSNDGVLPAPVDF

[11] = target: Luciferin 4-monooxygenase (Photinus pyralis, UniProt P08659); test: inhibition of purified Photinus pyralis luciferase – biochemical, luminescence, dose response (AID 1891)
[12] = Luminescence Cell-Based Dose Confirmation HTS to Identify Inhibitors of Platelet Dense Granule Release. [Related pubchem assays: 1663 (Primary HTS), 1678 (Summary of Project)]; type: functional
[13] = reduction of Shn3 3'UTR-driven luciferase in osteoblasts – cell-based, Clone20 osteoblasts, firefly luciferase, cherry-picked, dose response (AID 624132); type: functional;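 also: firefly luciferase luminescence from reporter carrying the Shn3 3'UTR in osteoblasts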
[14] = non-specific 3'UTR reporter inhibition in Clone20-Shn3RL – cell-based, Renilla luciferase, cherry-picked, counter-screen for Shn3 inhibitor project, dose response (AID 624133); type: functional
P388/ADR = test: cells; type: functional; settings: Mus musculus
SN12K1 = test: cells; type: functional; settings: Homo sapiens
P388 = test: cells; type: functional; settings: Mus musculus
[15] = intracellular Trypanosoma cruzi inhibitors in host cells – cell-based, plate reader, cherry-pick samples, set 3, dose response (AID 651818); type: functional;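 also: compounds incubated with infected cells for about four days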

Luciferin 4-monooxygenase, sequence (P08659 whole entry): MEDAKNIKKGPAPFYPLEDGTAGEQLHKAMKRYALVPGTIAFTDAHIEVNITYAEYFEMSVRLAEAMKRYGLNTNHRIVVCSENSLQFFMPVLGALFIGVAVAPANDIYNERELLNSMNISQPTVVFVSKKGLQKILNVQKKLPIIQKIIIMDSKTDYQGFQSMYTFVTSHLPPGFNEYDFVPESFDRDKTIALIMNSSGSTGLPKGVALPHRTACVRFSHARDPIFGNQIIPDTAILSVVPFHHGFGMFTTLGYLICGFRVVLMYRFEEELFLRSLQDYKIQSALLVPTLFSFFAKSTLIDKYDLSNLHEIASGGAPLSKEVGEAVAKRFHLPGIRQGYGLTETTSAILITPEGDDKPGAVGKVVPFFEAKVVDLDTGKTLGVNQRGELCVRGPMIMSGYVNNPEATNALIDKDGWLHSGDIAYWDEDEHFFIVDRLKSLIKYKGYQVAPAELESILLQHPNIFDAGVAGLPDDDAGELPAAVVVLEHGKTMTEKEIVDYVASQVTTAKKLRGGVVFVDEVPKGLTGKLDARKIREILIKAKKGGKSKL

Structure (SMILES): CCOc1ccccc1C(=O)OCC(=O)Nc1nnc(-c2ccccc2)o1
- EC50 [1]: 4.56 µM (active)
- EC50 (Streptokinase A): > 150 µM (not active)
- EC50 (Streptococcus): 14.6 µM (active)
- IC50 (cells): 19.2 µM (active)

Structure (SMILES): CC(C)(C)c1ccc(OCCON2C(=O)CCC2=O)c(Cl)c1
- EC50 [2]: > 120 µM (not active)
- EC50 [3]: 13.6 µM (active)
- EC50 [4]: 18.3 µM (active)

Structure (SMILES): CCC(C)N(CC(=O)Nc1cccc(C)c1C)C(=O)CCl (configuration not stated)
- CC50 [5]: 8.39 µM (active)
- EC50 (BJ [6]): 0.608 µM (active)
- EC50 (BJ [7]): 5.48 µM (active)
- EC50 (BJ [8]): 10.8 µM (active)
- EC50 [9]: 3.8 µM (active)
- AC50 [10]: 57.3 µM (active)
- EC50 (Protein RecA): 8.81 µM (active)

Structure (SMILES): COc1ccc(-c2cc(-c3cccnc3)c(C#N)c(N)n2)cc1
- EC50 [2]: 22 µM (active)
- EC50 [3]: 12.7 µM (active)
- EC50 [4]: 23 µM (active)

Structure (SMILES): COc1cc2cc(C(=O)N3CCN(Cc4ccc5c(c4)OCO5)CC3)[nH]c2cc1OC
- EC50 [2]: > 120 µM (not active)
- EC50 [3]: > 120 µM (not active)
- EC50 [4]: > 120 µM (not active)
- EC50 [11]: > 112 µM (not active)
- EC50 [12]: > 112 µM (not active)

Structure (SMILES): COc1ccc(Oc2c(C)oc3cc(OC(=O)N4CCOCC4)ccc3c2=O)cc1
- EC50 [2]: > 120 µM (not active)
- EC50 [3]: > 120 µM (not active)
- EC50 [4]: 59.2 µM (active)

Structure (SMILES): CCCCCCn1c(SCC(C)C)nc2c1c(=O)[nH]c(=O)n2C
- EC50 [2]: 15.4 µM (active)
- EC50 [3]: > 120 µM (not active)
- EC50 [4]: 18.8 µM (active)

Structure (SMILES): O=C(C1=C[C@@H](C2CC2)C[C@@H](OCCCCO)O1)N1CCN(Cc2ccccc2)CC1
- AC50 [13]: > 70 µM (inactive)
- AC50 [14]: > 70 µM (inactive)

Structure (SMILES): CC1=CC(C)(C)N(C(=O)CCl)c2cc(C)ccc21
- EC50 (BJ [6]): 5.77 µM (active)
- EC50 (BJ [7]): > 150 µM (not active)
- EC50 (BJ [8]): > 150 µM (not active)
- EC50 [9]: 29.8 µM (active)

Structure (SMILES): CN(C)C(=O)N(CCCl)N=O
- GI50 (P388/ADR): > 100 µM (inactive)
- GI50 (SN12K1): > 100 µM (inactive)
- GI50 (P388): > 100 µM (inactive)

Structure (SMILES): CCCCc1nccc2c(C)c3[nH]c4ccccc4c3cc12
- GI50 (P388/ADR): 2 µM (inactive)
- GI50 (SN12K1): 2.14 µM (inactive)
- GI50 (P388): 1.77 µM (inactive)

Structure (SMILES): CN(C)CC1CC/C(=C\c2ccc(Cl)cc2)C1=O (configuration not stated)
- GI50 (P388/ADR): 0.509 µM (active)
- GI50 (SN12K1): 2.21 µM (inactive)
- GI50 (P388): 0.31 µM (active)

Structure (SMILES): Cc1ccc(S(=O)(=O)Oc2cc(-c3ccccc3)nc3ccccc23)cc1
- GI50 (P388/ADR): 1.91 µM (inactive)
- GI50 (SN12K1): 1.61 µM (inactive)
- GI50 (P388): 1.15 µM (inactive)

Structure (SMILES): C[C@@H]1CCCCO[C@H](CN(C)Cc2ccc(Cl)c(Cl)c2)[C@@H](C)CN([C@H](C)CO)C(=O)c2cc(NC(=O)CCCCCC(=O)Nc3ccccc3N)ccc2O1
- AC50 [15]: 2.65 µM (active)
